One assay has as its system Washed human platelets. As to the kind of experiment: Platelet aggregation, light transmission aggregometry. The class given is cell-based. Particulars: for inhibition of SFLLRN-induced platelet aggregation: 30 μM, 3 μM SFLLRN, FIG. 2d; for reversibility of inhibition of platelet aggregation after washing: platelets incubated with antagonist, washed, then stimulated with SFLLRN. How it is done:
Platelet aggregation was performed as previously described in Jasuja, R. et al., J Clin Invest 122, 2104-2113 (2012). Briefly, platelet rich plasma (PRP) was obtained from healthy volunteers. Platelets were isolated by centrifugation at 2,000 g and resuspended in Hepes-Tyrode buffer (134 mM […], 2.9 mM KCl, 12 mM sodium bicarbonate, 20 mM HEPES, 1 mM magnesium chloride, 5 mM glucose [pH 7.3]). Washed human platelets (2.5×10^8 platelets/mL) were incubated with the indicated concentrations of bepristats and PACMA-31 at 37° C. for 20 minutes and then exposed to 3 μM PAR-1 activating peptide SFLLRN. Aggregation was measured using a Chrono-Log 680 Aggregation System.

The target in assay [1] is T1, PDI domain fragments (a, a′, ab, abb′, b′xa′) (Homo sapiens, UniProt P07237).
T1 construct: a (residues 1-117), a′ (residues 342-462), ab (residues 1-218), abb′ (residues 1-331), or b′xa′ (residues 219-462); His; made in house; host or cells: Escherichia coli Origami B (DE3), pET-15b
As to the kind of experiment: Insulin reductase assay of isolated PDI domains. The assay is classed as biochemical. Particulars: FIG. 4a. As to the method: (§1) The thiol isomerase-catalyzed reduction of insulin was assayed by measuring the increase in turbidity as detected at an optical density (OD) of 650 nm using a Spectramax M3 (Molecular Devices, Sunnyvale, Calif.). The validation assay consisted of 175 nM of PDI in a solution containing 100 mM potassium phosphate (pH 7.4) containing 0.2 mM bovine insulin, 2 mM EDTA, and 0.3 mM DTT (all purchased from Sigma Aldrich, St. Louis, Mo.), inhibitors were used at the concentrations indicated. The reaction was performed at 25° C. for one hour and thirty minutes. For assays of thiol isomerase selectivity, 11 nM PDI, ERp57 or Thioredoxin, or 33 nM ERpS were assayed in similar buffer conditions as described above and inhibitors were used at the indicated concentration. The reaction was performed at 37° C. for forty-five minutes. For assays of isolated domains studies, 400 nM protein was used, except for a, a′ and ab, in which 800 nM protein was used. The assay was performed in similar buffer conditions as described above. Bepristat 2a and N-(2,4-Dimethoxyphenyl)-N-(1-oxo-2-propyn-1-yl)-2-(2-thienyl)glycyl-glycine ethyl ester (PACMA-31) were used at a final concentration of 15 μM in these studies.

The target in assay [2] is T2, PDI domain fragments (a, a′, ab, abb′, b′xa′) (Homo sapiens, UniProt P07237).
T2 construct: a (residues 1-117), a′ (residues 342-462), ab (residues 1-218), abb′ (residues 1-331), or b′xa′ (residues 219-462); His; made in house; host or cells: Escherichia coli Origami B (DE3), pET-15b
T2 sequence (P07237 18-235): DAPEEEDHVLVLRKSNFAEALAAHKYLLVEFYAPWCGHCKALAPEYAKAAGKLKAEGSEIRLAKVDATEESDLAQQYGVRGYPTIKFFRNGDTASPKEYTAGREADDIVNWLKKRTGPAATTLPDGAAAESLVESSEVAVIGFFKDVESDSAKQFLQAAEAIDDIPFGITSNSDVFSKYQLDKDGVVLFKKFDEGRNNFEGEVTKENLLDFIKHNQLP
Nature of the assay: Insulin reductase assay of isolated PDI domains. The class given is biochemical. Particulars: FIG. 4a. As to the method:
as §1
The source holds these as a separate data set.

Assay [3] has as its target T3, PDI domain fragments (a, a′, ab, abb′, b′xa′) (Homo sapiens, UniProt P07237).
T3 construct: a (residues 1-117), a′ (residues 342-462), ab (residues 1-218), abb′ (residues 1-331), or b′xa′ (residues 219-462); His; made in house; host or cells: Escherichia coli Origami B (DE3), pET-15b
T3 sequence (P07237 18-348): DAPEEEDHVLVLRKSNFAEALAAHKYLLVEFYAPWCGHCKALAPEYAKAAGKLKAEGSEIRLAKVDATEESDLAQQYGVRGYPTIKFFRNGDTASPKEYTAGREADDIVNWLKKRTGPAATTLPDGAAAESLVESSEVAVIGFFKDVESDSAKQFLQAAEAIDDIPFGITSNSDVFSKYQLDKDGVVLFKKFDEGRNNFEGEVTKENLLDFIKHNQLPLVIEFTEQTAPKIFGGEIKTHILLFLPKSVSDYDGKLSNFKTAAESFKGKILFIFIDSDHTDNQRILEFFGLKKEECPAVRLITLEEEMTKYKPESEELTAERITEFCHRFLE
Nature of the assay: Insulin reductase assay of isolated PDI domains. The assay is classed as biochemical. Particulars: FIG. 4a. How it is done:
as §1
This is another data set of the same source.

Assay [4] addresses T4, PDI (Homo sapiens, UniProt P07237).
T4 construct: FLAG; made in house; host or cells: Escherichia coli Origami B (DE3), pET-15b
As to the kind of experiment: ANS fluorescence. The class given is binding. To be noted: 100 μM inhibitor, 50 μM ANS, FIG. 4c. How it is done:
The binding of 1-Anilinonaphthalene-8-Sulfonic Acid (ANS) to full length PDI and the different domains of PDI was assessed by incubating 5 μM of protein in the presence or absence of 100 μM of the indicated inhibitors in 175 μL of TBS at 37° C. for 1 hour. Subsequently, 50 μM of ANS was added and the mixture was incubated in the dark at 25° C. for 20 minutes. Fluorescence spectrum (Ex: 370 nm, Em: 400-700 nm) was measured in a 384-well plate. The experiment was performed in triplicate.

The target in assay [5] is T4, PDI. As to the kind of experiment: Di-eosin-GSSG disulfide reductase assay. The assay is classed as biochemical. As to the method: The probe di-eosin glutathione disulfide, di-eosin-GSSG, was prepared as previously described in Raturi, A., Vacratsis, P. O., Seslija, D., Lee, L. & Mutus, B., Biochem J 391, 351-357 (2005). Reductase activity of purified thiol isomerases and PDI domains was monitored in a 96-well fluorescence plate format. PDI, AGHA-PDI, ERpS, ERp57, ERp72 and PDI domains were assayed at 50 nM in the presence or absence of the indicated small molecules, peptides or cathepsin G. The assay included 100 mM potassium phosphate (pH 7.4) containing 2 mM EDTA, 5 μM DTT and 150 nM of the di-eosin GSSG probe. The increase in fluorescence was determined for 20 minutes by excitation at 520 nm and emission at 550 nm in a Synergy Biotek 4. The reduction of 150 nM di-eosin-GSSG by 5 μM DTT in the presence or absence of mentioned small molecules, peptides or proteins served as a negative control.
Michaelis Menten analysis was assayed using PDI at 20 nM and small molecules, peptides or cathepsin G at concentrations causing maximal augmentation under similar buffer conditions as described above. 8-point response curves were generated using a range of different di-eosin-GSSG concentrations (50-5000 nM). Enzyme kinetics analysis was performed using Graphpad Prism 5.0.

Assay [6] deals with T4, PDI. As to the kind of experiment: Insulin reductase (turbidimetric) assay. The assay is classed as biochemical. To be noted: for selectivity for PDI among thiol isomerases: versus ERp5, ERp57, thioredoxin, concentrations 10-fold higher than IC50. How it is done: as §1
Reversibility studies were performed by incubating 20 μM PDI with 6 μM of bepristat 2a or 300 μM of PACMA-31. After 30 minute equilibration; the PDI-inhibitor mixture was diluted 100 fold into the above mentioned assay buffer. The reductase activity of these mixtures were compared to PDI in the presence or absence of 6 μM bepristat 2a or 0.06 μM bepristat 2a or 300 μM PACMA-31 or 3 μM PACMA-31.

T4 sequence (P07237 18-508): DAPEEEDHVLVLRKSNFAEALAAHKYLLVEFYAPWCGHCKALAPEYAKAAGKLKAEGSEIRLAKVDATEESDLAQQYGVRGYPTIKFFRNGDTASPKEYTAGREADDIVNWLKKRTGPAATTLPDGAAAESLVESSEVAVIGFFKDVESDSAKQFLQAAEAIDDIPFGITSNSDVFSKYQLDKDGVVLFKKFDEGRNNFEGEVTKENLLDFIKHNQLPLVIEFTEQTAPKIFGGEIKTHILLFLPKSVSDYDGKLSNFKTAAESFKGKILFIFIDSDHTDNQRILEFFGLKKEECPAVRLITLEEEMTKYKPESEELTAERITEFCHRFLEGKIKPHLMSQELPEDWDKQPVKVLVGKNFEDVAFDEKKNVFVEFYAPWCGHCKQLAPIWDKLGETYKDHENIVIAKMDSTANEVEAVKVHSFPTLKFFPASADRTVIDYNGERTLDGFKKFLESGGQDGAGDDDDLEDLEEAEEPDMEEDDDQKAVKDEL

For `CCOC(=O)c1c(CNCCN(CC)CC)n(-c2ccccc2)c2cc(Br)c(O)cc12` [bepristat 2a], in the assay with Washed human platelets, the “inhibition of SFLLRN-induced platelet aggregation” value is given as “inhibited platelet aggregation” and the “reversibility of inhibition of platelet aggregation after washing” value is recorded as “restored following washing”. Besides, in assay [1], the “insulin reductase activity of b′xa′ domains” value is recorded as “blocked activity”, the “insulin reductase activity of isolated a domain” value is on record as “did not have activity” and the “insulin reductase activity of isolated a′ domain” value is “did not have activity”. For the same compound, the “insulin reductase activity of ab domain” value in assay [2] was “did not have activity”. Further, the “insulin reductase activity of abb′ domains” value in assay [3] is listed as “blocked activity”. The “increase in ANS fluorescence upon incubation with PDI” value at PDI [4] is on record as “interfered with the increase in ANS fluorescence”. Also, on PDI [5], the “cleavage of di-eosin-GSSG probe by PDI (reductase activity at catalytic cysteines)” value is reported as “enhanced cleavage of the di-eosin-GSSG probe by PDI”. In addition, the apparent kcat on PDI [5] (Michaelis-Menten analysis, incubation with compound, 1135 min^−1 without bepristats) stood at 33.25 s⁻¹. At PDI [5] (no PDI), the “fluorescence of di-eosin-GSSG in the absence of PDI” value is given as “did not affect”. In addition, the “reversibility of PDI inhibition in the insulin reductase assay” value on PDI [6] (100-fold dilution of 6 μM bepristat 2a or 300 μM PACMA-31, FIG. 9) is “readily reversed by dilution to a subinhibitory concentration”. Moreover, at PDI [6] (FIG. 1e), the “inhibitory activity in the insulin turbidimetric assay compared with quercetin-3-rutinoside, PACMA-31 and bacitracin” value is “more potent inhibitory activity”. The concentration for half-maximal inhibition (IC50) at PDI [6] (insulin reductase assay, FIG. 1b) is roughly 1.2 µM. Further, the “selectivity for PDI among thiol isomerases” value at PDI [6] is recorded as “selective among vascular thiol isomerases”.
Consider `C#CC(=O)N(c1ccc(OC)cc1OC)C(C(=O)NCC(=O)OCC)c1cccs1` (stereo not shown) [PACMA-31, N-(2,4-Dimethoxyphenyl)-N-(1-oxo-2-propyn-1-yl)-2-(2-thienyl)glycyl-glycine ethyl ester, reference compound], for which, in the assay on Washed human platelets, the “inhibition of SFLLRN-induced platelet aggregation” value is “inhibited platelet aggregation” and the “reversibility of inhibition of platelet aggregation after washing” value is recorded as “irreversibly inhibited”. For the same compound, in assay [1], the “insulin reductase activity of b′xa′ domains” value is “inhibited reductase activity of all PDI fragments”, the “insulin reductase activity of isolated a domain” value is on record as “inhibited reductase activity of all PDI fragments” and the “insulin reductase activity of isolated a′ domain” value was “inhibited reductase activity of all PDI fragments”. Besides, the “insulin reductase activity of ab domain” value in assay [2] is recorded as “inhibited reductase activity of all PDI fragments”. For the same compound, the “insulin reductase activity of abb′ domains” value in assay [3] is listed as “inhibited reductase activity of all PDI fragments”. Besides, at PDI [4], the “increase in ANS fluorescence upon incubation with PDI” value was “failed to block ANS fluorescence”. At PDI [5], the “cleavage of di-eosin-GSSG probe by PDI (reductase activity at catalytic cysteines)” value is “blocked PDI-mediated cleavage of di-eosin-GSSG”. Besides, on PDI [6], the “selectivity for PDI among thiol isomerases” value is “not entirely selective for PDI among thiol isomerases”.

For the origin of these results see patent publication US20180370912A1, “COMPOUNDS AND METHODS FOR TREATING DISEASES MEDIATED BY PROTEIN DISULFIDE ISOMERASE” (Beth Israel Deaconess Medical Center, Inc., priority 2017, published 2018).
